Legend:
[1] = Body weight of rats treated with EGCG; format: in vivo, rat
Protocol: (§1) Animal. Adult Sprague-Dawley (SD; Harlan) rats (body weight for male: 170-190 g; for female: 125-145 g) and lean and obese Zucker (Charles River Laboratory) rats (body weight for lean male: 240-260 g; for obese male: 420-440 g) were given free access to a standard rat chow diet and water unless indicated. Animal experimental protocols were approved by the University of Chicago institutional animal care and use committee. Rats were maintained at an ambient temperature of 25° C. under a photoperiod of 12-hour light and 12-hour dark.
(§2) In vivo treatment. EGCG and other catechins (>98% pure) were isolated from green tea (Camellia sinensis) in our laboratory as described in Liao et al., Biochem. Biophys. Res. Commun. 214: 833-838 (1995). Catechins were dissolved in water for oral administration and in sterile phosphate buffered saline for ip injection. Rats in control groups received vehicle only. Testosterone propionate (TP) and 5α-dihydrotestosterone propionate (DHTP) were dissolved in sesame oil and 4 mg in 0.5 ml sesame oil (16 mg/kg body weight) was injected subcutaneously daily, when indicated.
(§3) Food-restricted, male SD rats were given 12 g rat chow daily, which was about 50% of the amount consumed daily by each control rat. The body weight and the amount of food and water consumed were monitored daily. Food consumption was monitored in rats caged in groups of 3 to 5 animals by weighing food pellets every 24 hr. On the final day, rats were anesthetized with methoxyflurane and blood was collected by heart puncture. Sera were collected after centrifugation (10,000 g for 20 min at 4° C.) for biochemical analysis.
(§4) Statistical analysis. Data are expressed as the mean±sem. The unpaired Student's t-test was used to examine differences between control and the EGCG-injected groups. Analysis of variance and Student-Newman-Keuls multiple range test were used to examine differences among various groups. A probability level of 0.05 was used to indicate significance.
Body weight of subjects treated with EGCG. […] In male SD rats, the effect of EGCG on body weight was dose-dependent. […] Male SD rats injected daily ip with 26 and 53 mg EGCG/kg bw gained body weight by 17-24% relative to their initial body weight, but lost 5-9% relative to the control after 7 days of treatment. Whereas, male SD rats daily injected ip with 85 mg EGCG/kg bw lost 15-21% of their body weight relative to their initial weight and 30-41% relative to the control after 7 days of treatment. Control rats continued growth and increased their body weight by 25-34% relative to their initial weight (see Table 1). Female SD rats injected daily ip with 12.5 mg EGCG (about 92 mg/kg bw) lost 10% of their body weight relative to their initial weight and 29% relative to the control after 7 days of treatment. Therefore, a dose of EGCG of 70-92 mg/kg body weight was used in most experiments.

[2] = format: in vivo, rat
Protocol: as §1, §2, §4
Weight change in accessory sexual organs and other organs. An effect of EGCG dosage on the weight of accessory sexual organs was also observed. The weight of androgen-sensitive organs, such as ventral and dorsolateral prostates, seminal vesicles, coagulating glands, and preputial glands were reduced by 50-70% after 7 days of treatment with EGCG (about 85 mg/kg bw). Weight changes in these sexual organs were modulated in a catechin-specific manner. Relative to control animals sacrificed at the start of the experiment, these accessory sexual organs (except preputial gland) in male SD rats were reduced by 30-50% in weight after 7 days of EGCG treatment. […]

[3] = system: sex hormones, leptin, IGF-I, insulin, LH and GH; test: Change in levels of sex hormones, leptin, IGF-I, insulin, LH and GH (radioimmunoassay of serum); format: in vivo, rat
Protocol: as §1, §2, §3
(§5) Biochemical analysis. For biochemical analysis, commercially available radioimmunoassay kits for IGF-I and testosterone (Diagnostic Systems Laboratory, Inc), LH and GH (Amersham), leptin and insulin (Linco Research Inc), and corticosterone (ICN) and analytical kits for glycerol and triglyceride (Sigma) and fatty acids (Roche Molecular Biochemicals) were used. Proximate composition analysis of rats was performed by COVANCE Laboratory (Madison, Wis.). Complete blood count and serum chemistry (e.g., cholesterols, glucose, and enzymatic activities) were performed by the Animal Resource Center at the University of Chicago.
as §4
Change in levels of sex hormones, leptin, IGF-I, insulin, LH and GH. […] After 7 days of treatment with EGCG (about 85 mg/kg bw), circulating testosterone was reduced by about 70% in male SD rats. Similarly, the circulating level of 17β-estradiol was reduced by 34% in females after 7 days of EGCG treatment. […] However, the pulsatile nature of GH secretion prevented us from making definite conclusions about changes in circulating levels of GH in these rats. The effect of EGCG on sex hormones and various peptide hormones investigated was not mimicked by ECG which has one less hydroxyl group than EGCG.

[4] = Exogenous androgen (TP or DHTP) co-administered with EGCG; format: in vivo, rat
Protocol: as §2
Effects of exogenous androgen reverses the effect of EGCG on accessory sexual organs. To determine if the reduction in weight of accessory sexual organs was due to EGCG-induced reduction in androgen levels, we injected male SD rats with androgen and/or EGCG.

[5] = Change in serum nutrients and proximate body composition; format: in vivo, rat
Protocol: as §1, §2, §3, §5, §4
Change in serum nutrients and proximate body composition.

[6] = Effect of EGCG on food intake; format: in vivo, rat
Protocol: as §1
In vivo treatment. EGCG and other catechins (>98% pure) were isolated from green tea (Camellia sinensis) in our laboratory as described in Liao et al., Biochem. Biophys. Res. Commun. 214: 833-838 (1995). Catechins were dissolved in water for oral administration and in sterile phosphate buffered saline for ip injection. Rats in control groups received vehicle only. […]
Food-restricted, male SD rats were given 12 g rat chow daily, which was about 50% of the amount consumed daily by each control rat. The body weight and the amount of food and water consumed were monitored daily. Food consumption was monitored in rats caged in groups of 3 to 5 animals by weighing food pellets every 24 hr. […]

[7] = Change in composition of blood (serum chemistry, complete blood count); details: rat, in vivo
Protocol: as §2, §3
Biochemical analysis. […]
Change in composition of blood. Male SD rats were treated with EGCG and ECG for 7 days and then their serum and whole blood was analyzed for various components. […]

[8] = female SD rats, 12.5 mg EGCG (about 92 mg/kg bw) ip daily, 7 days
[9] = male SD rats, 85 mg EGCG/kg bw ip daily, 7 days
[10] = male SD rats, 26 and 53 mg EGCG/kg bw ip daily, 7 days
[11] = male and female SD rats, 7 days
[12] = male SD and lean Zucker rats, within 7 to 8 days

O=C(OC1Cc2c(O)cc(O)cc2OC1c1cc(O)c(O)c(O)c1)c1cc(O)c(O)c(O)c1 (single isomer, unassigned; (-)) [EGCG, (−)epigallocatechin-3-gallate]
effectiveness in reducing body weight compared with 15 mg (about 85 mg/kg) ([1]; 5 or 10 mg EGCG (26 and 53 mg/kg body weight) injected daily, male SD rats): not effective or less effective | body weight loss ([1]; IP injection, SD male and female rats, within 2 to 7 days of treatment): caused acute body weight loss | body weight lost relative to initial weight [1, 8]: 10% | body weight lost relative to the control [1, 8]: 29% | body weight lost relative to initial weight [1, 9]: 15-21% | body weight lost relative to the control [1, 9]: 30-41% | body weight gain relative to initial body weight [1, 10]: 17-24% | body weight lost relative to the control [1, 10]: 5-9% | effect on body weight, dose dependence ([1]; male SD rats, ip daily): dose-dependent | reduction in weight of androgen-sensitive organs (ventral and dorsolateral prostates, seminal vesicles, coagulating glands, preputial glands) ([2]; about 85 mg/kg bw, 7 days, male rats): 50-70% | reduction in weight of estrogen-sensitive organs (uterus and ovary) ([2]; female SD rats, 7 days of treatment): about 50% | reduction in weight of accessory sexual organs (except preputial gland) relative to control animals sacrificed at the start of the experiment ([2]; male SD rats, 7 days of treatment): 30-50% | reduction of circulating level of 17β-estradiol ([3]; female SD rats, 7 days): 34% | serum level of GH ([3]; female SD rats, 7 days): reduced in females | dose dependence of effects on serum testosterone, leptin, IGF-I and insulin ([3]; male SD rats): Dose-dependent effects | serum level of GH ([3]; male SD rats, 7 days): increased in males | reduction of circulating testosterone ([3]; male SD rats, about 85 mg/kg bw, 7 days): about 70% | blood level of IGF-I [3, 11]: significant reduction | blood level of insulin [3, 11]: significant reduction | blood level of leptin [3, 11]: significant reduction | reduction of serum level of LH [3, 11]: 40-50% | EGCG-induced body weight loss, food intake restriction, decreases in circulating leptin, IGF-I, insulin and LH, increase in GH under androgen administration ([4]; male SD rats, androgen co-administered): androgen administration was not able to prevent | prostate weight loss ([4]; male rats injected daily with TP or DHTP (16 mg/kg sc)): did not cause prostate weight loss | percent water and protein content (proximate composition) ([5]; SD rats treated daily for 7 days): no change | carbohydrate content (proximate composition) ([5]; SD rats treated daily for 7 days, 2.5% in control): 1.3% | fat content (proximate composition) ([5]; SD rats treated daily for 7 days, 4.1% in control): 1.4% | decrease of abdominal fat [5, 12]: 20-35% | decrease of epididymal fat [5, 12]: not epididymal fat | decrease of subcutaneous fat [5, 12]: 40-70% | change in serum cholesterol ([5]; male SD rats): −20% | change in serum glucose ([5]; male SD rats): −32% | change in serum lipids ([5]; male SD rats): −15% | change in serum triglycerides ([5]; male SD rats): −46% | serum level of protein, fatty acids and glycerol ([5]; male SD rats): not altered | loss of abdominal fat ([5]; obese male Zucker rats, within 4 days): 20% | less food consumed than control rats ([6]; SD male and female rats, ip): 50-60% | effects of EGCG when administered orally compared with intraperitoneally ([6]; oral administration): diminished or absent | serum total protein, albumin, blood urea nitrogen, creatine, PO4 3−, Na+, K+, Ca2+, Cl−, lactate dehydrogenase, alanine aminotransferase, aspartate aminotransferase, γ-glutamyltranspeptidase [7]: Neither EGCG nor structurally-related ECG caused significant changes

(−)epicatechin-3-gallate [ECG, reference compound]
effect on sex hormones and various peptide hormones, compared with the effect of EGCG ([3]; rats): not mimicked

— patent US6610749B2, “Polyhydroxylated benzene-containing compounds” (ARCH Development Corporation, priority 2000, dated 2003)
